According to patent US20220289657A1, “COMPOSITION FOR PREVENTING OR TREATING BACTERIAL INFECTIOUS DISEASE COMPRISING 4-GINGEROL DERIVATIVE COMPOUND AS ACTIVE INGREDIENT” (KOREA UNIVERSITY RESEARCH AND BUSINESS FOUNDATION, SEJONG …, priority 2019, published 2022):
Marks after values point to notes of the source that are not given here.

Molecular target: T1, RhlR (Pseudomonas aeruginosa, UniProt P54292)
T1 construct: expressed in transfected cells; host or cells: E. coli sdiA variant co-transformed with pJN105R and pSC11 (RhlA::lacZ)
T1 sequence (P54292 whole entry): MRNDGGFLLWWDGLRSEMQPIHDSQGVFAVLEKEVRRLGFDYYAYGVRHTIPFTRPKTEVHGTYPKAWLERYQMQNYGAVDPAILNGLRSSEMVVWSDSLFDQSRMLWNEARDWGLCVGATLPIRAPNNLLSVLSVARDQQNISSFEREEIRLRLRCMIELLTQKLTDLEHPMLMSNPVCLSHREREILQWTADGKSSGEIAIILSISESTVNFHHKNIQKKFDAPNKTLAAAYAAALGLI
Test: cell-based
Conditions: footnotes not given; for activity at 100 µM: read-out: Relative RhlR activity Agonism, Table 2, matches the 100 column of Table 3; for remaining activity at 100 µM: read-out: Relative RhlR activity Antagonism, Table 2; for remaining activity at 100 µM / Relative RhlR activity Antagonism: 100 μM per Table 3, lower = stronger antagonism; for Relative RhlR activity Antagonism: Table 2
Method: Escherichia coli (E. coli) DH5a includes LuxR homolog SdiA detecting endogenous AHL synthesized by other microbial species, particularly, BHL.
For RhlR reporter strain analysis, the present invention used pJN105R (RhlR expression plasmid), anspSC11 (RhlA::lacZ fusion plasmid) and an sdiA variant co-transformed with the two plasmids. 1% of an overnight-cultured reporter strain (OD 595 nm=1.0) supplemented with 10 μg/mL gentamicin and 50 μg/mL ampicillin was cultured in a Luria-Bertani (LB) medium (Difco, Detroit, Mich., USA) with a positive control or a compound (0-1000 μM) and BHL (0-10 μM) (Sigma-Aldrich) at 37° C. for 2 hours. 0.4% arabinose (Sigma-Aldrich) was reacted with the resulting product at 37° C. for 1.5 hours. β-galactosidase activity was evaluated using a Tropix plus kit (Applied Biosystems, CA, USA), and OD 595 nm and luminescence were measured using a VICTOR x5 multimode plate reader (PerkinElmer, Waltham, Mass., USA). Relative RhlR activity was quantified by measuring luminescence at OD 595 nm. In addition, for LasR reporter strain analysis, the present invention used pJN105L (LasR expression plasmid) and pSC11 (lasI::lacZ fusion plasmid), E. coli DH5a co-transformed with the two plasmids, and OdDHL (Sigma-Aldrich).

CCCC(O)CC(=O)CCc1ccc(C)cc1 (stereo not shown) [Compound 12i, 5-Hydroxy-1-(p-tolyl)octan-3-one] gave an activity at 100 µM of 1% and a remaining activity at 100 µM of 76%.
In the case of CCCCCC(O)CCc1ccc(O)c(OC)c1 (stereo not shown) [Compound 27], the “Relative RhlR activity Antagonism” value is reported as 45** %, the activity at 100 µM is reported as 2% and the remaining activity at 100 µM is reported as 45%.
With CCCC(O)CC(=O)/C=C/c1ccc(C)c(C)c1 (stereo not shown) [Compound 11p, (E)-1-(3,4-Dimethylphenyl)-5-hydroxyoct-1-en-3-one] the “Relative RhlR activity Antagonism” value was 72** %, the activity at 100 µM was 2% and the remaining activity at 100 µM was 72%.
Compound CCCC(O)CC(=O)CCc1cc(F)cc(OC)c1 (stereo not shown) [Compound 12r, 1-(3-Fluoro-5-methoxyphenyl)-5-hydroxyoctan-3-one] has an activity at 100 µM of 3% and a remaining activity at 100 µM of 85%.
In the case of CCCC(O)CC(=O)CCc1ccc(OC)c(OC)c1 (stereo not shown) [Compound 12l, 1-(3,4-Dimethoxyphenyl)-5-hydroxyoctan-3-one], the activity at 100 µM is reported as 1% and the remaining activity at 100 µM is reported as 94%.
For CCCCCC(O)/C=C/c1ccc(O)c(OC)c1 (stereo not shown) [Compound 15b, (E)-4-(3-Hydroxyoct-1-en-1-yl)-2-methoxyphenol], the “Relative RhlR activity Antagonism” value was 41** %, the activity at 100 µM was 2% and the remaining activity at 100 µM was 41%.
In the case of CCCC(O)CC(=O)/C=C/c1ccccc1 (stereo not shown) [Compound 11b, (E)-5-Hydroxy-1-phenyloct-1-en-3-one], the “Relative RhlR activity Antagonism” value is reported as 93* %, the activity at 100 µM is reported as 4% and the remaining activity at 100 µM is reported as 93%.
CCCCCCC(O)CC(=O)CCc1ccc(O)c(OC)c1 (stereo not shown) [Compound 5, 5-Hydroxy-1-(4-hydroxy-3-methoxyphenyl)undecan-3-one] showed an activity at 100 µM of 3% and a remaining activity at 100 µM of 83%.
With CCCC(O)CC(=O)/C=C/c1ccccc1C (stereo not shown) [Compound 11i, (E)-5-Hydroxy-1-(o-tolyl)oct-1-en-3-one] the “Relative RhlR activity Antagonism” value was 65** %, the activity at 100 µM was 2% and the remaining activity at 100 µM was 65%.
Compound CCCC(O)CC(=O)CCc1ccc(F)c(OC)c1 (stereo not shown) [Compound 12q, 1-(4-Fluoro-3-methoxyphenyl)-5-hydroxyoctan-3-one] has an activity at 100 µM of 1% and a remaining activity at 100 µM of 79%.
For CCCC(O)CC(=O)CCc1ccc(O)c(OC)c1 (stereo not shown) [Compound 2, 5-Hydroxy-1-(4-hydroxy-3-methoxyphenyl)octan-3-one], the “Relative RhlR activity Antagonism” value was 54** %, the activity at 100 µM was 3% and the remaining activity at 100 µM was 54%.
With CCCCCC(O)/C=C\c1ccc(O)c(OC)c1 (stereo not shown) [Compound 25, (Z)-4-(3-Hydroxyoct-1-en-1-yl)-2-methoxyphenol] the “Relative RhlR activity Antagonism” value was 79** %, the activity at 100 µM was 3% and the remaining activity at 100 µM was 79%.
CCCC(O)CC(=O)CCc1ccc(C)c(C)c1 (stereo not shown) [Compound 12p, 1-(3,4-Dimethylphenyl)-5-hydroxyoctan-3-one] showed an activity at 100 µM of 3% and a remaining activity at 100 µM of 82%.
With CCCC(O)CC(=O)CCc1ccccc1 (stereo not shown) [Compound 12b, 5-Hydroxy-1-phenyloctan-3-one] the activity at 100 µM was 4% and the remaining activity at 100 µM was 88%.
For CCCC(O)CC(=O)CCc1ccc(O)c(O)c1 (stereo not shown) [Compound 12k, 1-(3,4-Dihydroxyphenyl)-5-hydroxyoctan-3-one], the activity at 100 µM was 2% and the remaining activity at 100 µM was 47%.
In the case of CCCCC(O)C#Cc1ccc(F)c(F)c1 (racemic) [Compound 34a, 1-(3,4-Difluorophenyl)hept-1-yn-3-ol], the activity at 100 µM is reported as 4% and the remaining activity at 100 µM is reported as 71%.
With CCCC(O)CC(=O)CCc1ccc(O)c(OCC)c1 (stereo not shown) [Compound 12n, 1-(3-Ethoxy-4-hydroxyphenyl)-5-hydroxyoctan-3-one] the activity at 100 µM was 1% and the remaining activity at 100 µM was 98%.
For CCCC(O)CC(=O)/C=C/c1cc(F)cc(OC)c1 (stereo not shown) [Compound 11r, (E)-1-(3-Fluoro-5-methoxyphenyl)-5-hydroxyoct-1-en-3-one], the “Relative RhlR activity Antagonism” value was 74** %, the activity at 100 µM was 3% and the remaining activity at 100 µM was 74%.
Work on CCCC(O)CC(=O)CCc1ccc(OC)cc1 (stereo not shown) [Compound 12f, 5-Hydroxy-1-(4-methoxyphenyl)octan-3-one] yielded an activity at 100 µM of 2% and a remaining activity at 100 µM of 71%.
Compound CCCCC[C@@H](O)C#Cc1ccc(F)c(F)c1 [Compound 35b, (R)-1-(3,4-Difluorophenyl)oct-1-yn-3-ol] has an activity at 100 µM of 3% and a remaining activity at 100 µM of 72%.
In the case of CCCC(O)CC(=O)/C=C/c1ccc(Cl)cc1 (stereo not shown) [Compound 11h, (E)-1-(4-Chlorophenyl)-5-hydroxyoct-1-en-3-one], the “Relative RhlR activity Antagonism” value is reported as 64** %, the activity at 100 µM is reported as 1% and the remaining activity at 100 µM is reported as 64%.
CCCC(O)CC(=O)CCc1ccc(F)c(F)c1 (stereo not shown) [Compound 12o, 1-(3,4-Difluorophenyl)-5-hydroxyoctan-3-one] showed an activity at 100 µM of 1% and a remaining activity at 100 µM of 49%.
CCCCCC(=O)/C=C/c1ccc(O)c(OC)c1 [Compound 13b, (E)-1-(4-Hydroxy-3-methoxyphenyl)oct-1-en-3-one] was tested, and the “Relative RhlR activity Antagonism” value was 41** %, the activity at 100 µM was 2% and the remaining activity at 100 µM was 41%.
CCCC(O)CC(=O)/C=C/c1ccc(F)c(OC)c1 (stereo not shown) [Compound 11q, (E)-1-(4-Fluoro-3-methoxyphenyl)-5-hydroxyoct-1-en-3-one] was tested, and the “Relative RhlR activity Antagonism” value was 43** %, the activity at 100 µM was 1% and the remaining activity at 100 µM was 43%.
CCCC(O)CC(=O)CCc1ccc(O)c(F)c1 (stereo not shown) [Compound 12m, 1-(3-Fluoro-4-hydroxyphenyl)-5-hydroxyoctan-3-one] gave an activity at 100 µM of 1% and a remaining activity at 100 µM of 73%.
Compound CCCCCC(=O)CCc1ccc(F)c(F)c1 [Compound 14a, 1-(3,4-Difluorophenyl)octan-3-one] has an activity at 100 µM of 4% and a remaining activity at 100 µM of 55%.
CCCC(O)CC(=O)/C=C/c1ccc(O)c(F)c1 (stereo not shown) [Compound 11m, (E)-1-(3-Fluoro-4-hydroxyphenyl)-5-hydroxyoct-1-en-3-one] gave an activity at 100 µM of 2% and a remaining activity at 100 µM of 60%.
For CCCC(O)CC(=O)CCc1ccc(F)cc1 (stereo not shown) [Compound 12g, 1-(4-Fluorophenyl)-5-hydroxyoctan-3-one], the activity at 100 µM was 2% and the remaining activity at 100 µM was 51%.
CCCCCC(O)C#Cc1ccc(F)c(F)c1 (racemic) [Compound 35a, 1-(3,4-Difluorophenyl)oct-1-yn-3-ol] gave an activity at 100 µM of 3% and a remaining activity at 100 µM of 74%.
CCCCCC(O)CCc1ccc(F)c(F)c1 (stereo not shown) [Compound 16a, 1-(3,4-Difluorophenyl)octan-3-ol] showed an activity at 100 µM of 5% and a remaining activity at 100 µM of 61%.
For CCCC(O)CC(=O)/C=C/c1ccc(N(C)C)cc1 (stereo not shown) [Compound 11j, (E)-1-(4-(Dimethylamino)phenyl)-5-hydroxyoct-1-en-3-one], the “Relative RhlR activity Antagonism” value was 53** %, the activity at 100 µM was 2% and the remaining activity at 100 µM was 53%.
CCCC(O)CC(=O)/C=C/c1ccc(F)cc1 (stereo not shown) [Compound 11g, (E)-1-(4-Fluorophenyl)-5-hydroxyoct-1-en-3-one] was tested, and the “Relative RhlR activity Antagonism” value was 33** %, the activity at 100 µM was 1% and the remaining activity at 100 µM was 33%.
For CCCC[C@H](O)C#Cc1ccc(F)c(F)c1 [Compound 34c, (S)-1-(3,4-Difluorophenyl)hept-1-yn-3-ol], the activity at 100 µM was 2% and the remaining activity at 100 µM was 64%.
CCCCCC(O)/C=C/c1ccc(F)c(F)c1 (stereo not shown) [Compound 15a, (E)-1-(3,4-Difluorophenyl)oct-1-en-3-ol] showed an activity at 100 µM of 5% and a remaining activity at 100 µM of 55%.
CCCCCCCC(O)CC(=O)CCc1ccc(O)c(OC)c1 (stereo not shown) [Compound 6, 5-Hydroxy-1-(4-hydroxy-3-methoxyphenyl)dodecan-3-one] gave an activity at 100 µM of 2% and a remaining activity at 100 µM of 90%.
Compound CCCC(O)CC(=O)/C=C/c1ccc(O)c(OCC)c1 (stereo not shown) [Compound 11n, (E)-1-(3-Ethoxy-4-hydroxyphenyl)-5-hydroxyoct-1-en-3-one] has an activity at 100 µM of 1% and a remaining activity at 100 µM of 91%.
CCCC(O)CC(=O)/C=C/c1ccc(OC)c(OC)c1 (stereo not shown) [Compound 11l, (E)-1-(3,4-Dimethoxyphenyl)-5-hydroxyoct-1-en-3-one] showed an activity at 100 µM of 1% and a remaining activity at 100 µM of 69%.
CCCC(O)CC(=O)CCc1cccc(O)c1 (stereo not shown) [Compound 12e, 5-Hydroxy-1-(3-hydroxyphenyl)octan-3-one] was tested, and the activity at 100 µM was 2% and the remaining activity at 100 µM was 81%.
Compound CCCCC[C@H](O)C#Cc1ccc(F)c(F)c1 [Compound 35c, (S)-1-(3,4-Difluorophenyl)oct-1-yn-3-ol] has an activity at 100 µM of 4% and a remaining activity at 100 µM of 67%.
Compound CCCC(O)CC(=O)CCc1ccc(Cl)cc1 (stereo not shown) [Compound 12h, 1-(4-Chlorophenyl)-5-hydroxyoctan-3-one] has an activity at 100 µM of 2% and a remaining activity at 100 µM of 69%.
Compound CCCC(O)CC(=O)CCc1ccc(N(C)C)cc1 (stereo not shown) [Compound 12j, 1-(4-(Dimethylamino)phenyl)-5-hydroxyoctan-3-one] has an activity at 100 µM of 1% and a remaining activity at 100 µM of 74%.
Work on CCCCC(O)CC(=O)CCc1ccc(O)c(OC)c1 (stereo not shown) [Compound 3, 5-Hydroxy-1-(4-hydroxy-3-methoxyphenyl)nonan-3-one] yielded an activity at 100 µM of 2% and a remaining activity at 100 µM of 62%.
